Read-outs that look alike come from different tables or passages of the source.
Key:
Clostridium perfringens = assay type: in vivo
cockerels of broilers = assay: Survival rate and growing rate of cockerels of broilers fed the compound in rye-rations for 14 days; assay type: in vivo, cockerels of broilers (Habbard); settings: for Gain (Ratio): control = 100.0; for Gain: mean
Description: The feeds prepared by adding 0, 1.0, 10.0 and 100.0 ppm of 8,9-anhydroerythromycin A 6,9-hemiketal propargyl chloride respectively to rye-rations, were given to 160 cockerels of broilers (Habbard) of day zero, as 10 cockerels/group×4 repeats/ section, and allowed to be taken freely and continuously for 14 days. The cockerels were positioned to be accommodated for each groups by the Latin square method in an electrically heated battery brooder (the inside thereof is heated at a temperature of 32° C.). The survival rate and the growing rate were measured at 7 and 14 days of age.
Experimental Example 2 was repeated except for changing the administration compound to ethyl-nor-8,9-anhydroerythromycin A 6,9-hemiketal. The result of measuring the survival rate and the growing rate in cockerals of broilers (Habbard) of day zero was shown in Table 8.

SMILES: C#CC[N+](C)(C)[C@H]1C[C@@H](C)O[C@@H](O[C@@H]2[C@@H](C)[C@H](O[C@H]3C[C@@](C)(OC)[C@@H](O)[C@H](C)O3)[C@@H](C)C(=O)O[C@H](CC)[C@@](C)(O)[C@H](O)[C@@H](C)C3=C(C)C[C@@]2(C)O3)[C@@H]1O [8,9-anhydroerythromycin A 6,9-hemiketal propargyl chloride]
- Number of Cl. perfringens (Clostridium perfringens; 1.0 ppm (section 2), day 0): 2.0 log CFU/g
- Number of Cl. perfringens (Clostridium perfringens; 1.0 ppm (section 2), day 7): 6.1 log CFU/g
- Number of Cl. perfringens (Clostridium perfringens; 10.0 ppm (section 3), day 0): 2.0 log CFU/g
- Number of Cl. perfringens (Clostridium perfringens; 10.0 ppm (section 3), day 7): 4.9 log CFU/g
- Number of Cl. perfringens (Clostridium perfringens; 100.0 ppm (section 4), day 0): 2.0 log CFU/g
- Number of Cl. perfringens (Clostridium perfringens; 100.0 ppm (section 4), day 7): 6.2 log CFU/g
- Survival rate (cockerels of broilers; 1.0 ppm in feed, 0-7 days): 97.5%
- Gain (Ratio) (cockerels of broilers; 1.0 ppm in feed, 0-7 days): 105.7
- Gain (cockerels of broilers; 1.0 ppm in feed, 0-7 days): 84.1 g/cockerel
- Survival rate (cockerels of broilers; 1.0 ppm in feed, 0-14 days): 97.5%
- Gain (Ratio) (cockerels of broilers; 1.0 ppm in feed, 0-14 days): 105.3
- Gain (cockerels of broilers; 1.0 ppm in feed, 0-14 days): 258.2 g/cockerel
- Survival rate (cockerels of broilers; 10.0 ppm in feed, 0-7 days): 100.0%
- Gain (Ratio) (cockerels of broilers; 10.0 ppm in feed, 0-7 days): 105.0
- Gain (cockerels of broilers; 10.0 ppm in feed, 0-7 days): 83.5 g/cockerel
- Survival rate (cockerels of broilers; 10.0 ppm in feed, 0-14 days): 100.0%
- Gain (Ratio) (cockerels of broilers; 10.0 ppm in feed, 0-14 days): 103.7
- Gain (cockerels of broilers; 10.0 ppm in feed, 0-14 days): 254.3 g/cockerel
- Survival rate (cockerels of broilers; 100.0 ppm in feed, 0-7 days): 100.0%
- Gain (Ratio) (cockerels of broilers; 100.0 ppm in feed, 0-7 days): 111.4
- Gain (cockerels of broilers; 100.0 ppm in feed, 0-7 days): 88.6 g/cockerel
- Survival rate (cockerels of broilers; 100.0 ppm in feed, 0-14 days): 100.0%
- Gain (Ratio) (cockerels of broilers; 100.0 ppm in feed, 0-14 days): 107.4
- Gain (cockerels of broilers; 100.0 ppm in feed, 0-14 days): 263.3 g/cockerel

Reference: patent US4948782A, “A method of promoting the growth of domestic animals with erythromycin derivative containing composition” (Kitasato Kenkyusho, priority 1987, dated 1990)
